Earlier results in patent US8034766B2 (priority 2006, dated 2011).

Test system: prion
Details: in vivo

## CC(=O)OO [Peracetic acid, peracetic acid]
  onward transmission rate following treatment: 100%
